Patent US20210177828A1, “TAM FAMILY KINASE /AND CSF1R KINASE INHIBITOR AND USE THEREOF” (Nanjing Transthera Biosciences Co., Ltd., priority 2018, published 2021)

Legend:
H1299 cell pMer = target: T1, H1299 cell pMer (Homo sapiens, UniProt Q12866); experiment: Inhibitory activity on cell pMer, H1299 cells, Human Mer Mab stimulation, Western Blot; assay type: cell-based; conditions: Human Mer Mab 200 ng/mL
T1 construct: endogenous in cells; host or cells: H1299
T1 sequence (Q12866 21-999): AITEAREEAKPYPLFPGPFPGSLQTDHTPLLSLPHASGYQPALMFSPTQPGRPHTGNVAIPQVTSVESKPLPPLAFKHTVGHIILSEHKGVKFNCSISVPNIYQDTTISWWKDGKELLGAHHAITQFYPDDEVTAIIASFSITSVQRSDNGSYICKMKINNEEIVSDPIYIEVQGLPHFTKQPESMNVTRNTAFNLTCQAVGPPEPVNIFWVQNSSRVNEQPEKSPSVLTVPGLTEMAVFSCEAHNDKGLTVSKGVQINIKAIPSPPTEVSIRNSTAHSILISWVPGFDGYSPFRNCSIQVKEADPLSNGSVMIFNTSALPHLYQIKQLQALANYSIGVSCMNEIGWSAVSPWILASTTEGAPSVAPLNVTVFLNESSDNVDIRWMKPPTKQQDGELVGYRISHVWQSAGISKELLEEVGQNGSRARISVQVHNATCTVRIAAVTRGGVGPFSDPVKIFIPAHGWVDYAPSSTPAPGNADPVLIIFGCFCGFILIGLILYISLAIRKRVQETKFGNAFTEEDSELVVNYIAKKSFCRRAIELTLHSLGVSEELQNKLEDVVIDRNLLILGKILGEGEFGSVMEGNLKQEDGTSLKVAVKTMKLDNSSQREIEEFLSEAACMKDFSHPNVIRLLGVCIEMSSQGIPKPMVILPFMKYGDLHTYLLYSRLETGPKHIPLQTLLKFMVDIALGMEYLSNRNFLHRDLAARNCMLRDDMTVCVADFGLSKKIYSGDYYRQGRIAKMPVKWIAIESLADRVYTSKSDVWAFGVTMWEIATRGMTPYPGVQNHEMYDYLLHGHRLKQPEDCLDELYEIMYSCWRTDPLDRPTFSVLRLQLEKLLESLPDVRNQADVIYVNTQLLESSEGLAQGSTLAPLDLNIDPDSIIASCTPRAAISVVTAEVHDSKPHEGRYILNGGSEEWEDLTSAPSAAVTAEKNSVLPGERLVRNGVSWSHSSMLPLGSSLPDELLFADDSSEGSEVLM
Experimental: H1299 is anon-small cell lung cancer cell.
H1299 cells were inoculated to a 6-well plate (containing 10% FBS 1640 medium, 5×10^5 cells per well) and adherently cultivated at 37° C., and 5% CO2 for 18 hrs. The cells were starved overnight, and then compound solutions with different concentrations were added. The compounds had final concentrations of 0.35, 1.1, 3.3 and 10 nM. […] There was a medium containing 1‰DMSO in the negative control well. The cells were incubated at 37° C., and 5% CO2 for 60 min, and then Human Mer Mab (R&D, final concentration: 200 ng/mL) was added to each well. The cells were further incubated for 60 min, and then the total protein of the cells was extracted for Western Blot experiment. Gray analysis was performed on the results with Image J software, and IC50 values were calculated with GraphPad 5.0 software. The inhibitory activities of the compounds on cell pMer were detected.

Tyro-3 (h) = target: T2, Tyro-3 (h) (Homo sapiens, UniProt Q06418); experiment: Enzymatic activity assay, Tyro-3 (h), [γ-33P]-ATP filter assay; assay type: biochemical; conditions: 10 μM ATP, 40 min room temperature; read-out: Inhibitory activity IC50 Tyro-3(h)
T2 sequence (Q06418 41-890): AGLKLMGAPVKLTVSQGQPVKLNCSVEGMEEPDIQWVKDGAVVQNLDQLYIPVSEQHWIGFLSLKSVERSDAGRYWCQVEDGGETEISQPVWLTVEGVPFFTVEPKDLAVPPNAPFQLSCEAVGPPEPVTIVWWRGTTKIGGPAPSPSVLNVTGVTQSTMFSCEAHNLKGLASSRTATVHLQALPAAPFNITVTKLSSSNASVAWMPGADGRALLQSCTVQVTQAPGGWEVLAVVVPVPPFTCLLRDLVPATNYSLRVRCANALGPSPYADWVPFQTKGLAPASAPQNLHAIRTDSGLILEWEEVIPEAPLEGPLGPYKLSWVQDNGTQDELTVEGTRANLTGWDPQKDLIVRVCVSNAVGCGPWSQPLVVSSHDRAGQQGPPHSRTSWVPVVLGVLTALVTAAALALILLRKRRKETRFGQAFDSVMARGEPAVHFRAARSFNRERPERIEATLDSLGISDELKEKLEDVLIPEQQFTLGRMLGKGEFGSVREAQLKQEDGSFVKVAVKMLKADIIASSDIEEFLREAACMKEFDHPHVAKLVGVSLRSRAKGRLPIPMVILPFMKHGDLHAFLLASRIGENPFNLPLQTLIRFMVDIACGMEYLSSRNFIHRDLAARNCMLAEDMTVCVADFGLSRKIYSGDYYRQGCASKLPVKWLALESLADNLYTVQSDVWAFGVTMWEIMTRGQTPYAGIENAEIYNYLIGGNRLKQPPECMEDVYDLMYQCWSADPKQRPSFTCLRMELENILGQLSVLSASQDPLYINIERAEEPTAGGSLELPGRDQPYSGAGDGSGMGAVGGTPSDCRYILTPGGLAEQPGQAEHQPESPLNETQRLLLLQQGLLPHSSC
Experimental: (§1) Compounds were each dissolved in 100% DMSO to prepare stock solutions with a maximum concentration of 500 μM.
(§2) Compound working solutions (50×) were prepared by diluting a compound stock solution to a final concentration of 500, 150, 50, 15, 5, 1.5, 0.5, 0.15 and 0.05 μM.
An enzyme solution with a final concentration of 38 nM was prepared by dissolving Tyro3 (h) enzyme in a mixture of 8 mM MOPS (pH 7.0), 0.2 mM EDTA, 1 mM MnCl2 and 250 μM KVEKIGEGTYGVVYK. A Mg/ATP mixture of 10 mM magnesium acetate and 10 μM [γ-^33P]-ATP was used to activate the enzymatic reaction.
(§3) A compound working solution was added to a 384-well plate, with final concentrations of 10,000, 3,000, 1,000, 300, 100, 30, 10, 3 and 1 nM, and then different enzymatic reaction solutions prepared according to the above conditions were added. The reaction solutions were incubated at room temperature for 40 min, and then 0.5% phosphoric acid solutions were added to terminate the reaction. 10 μL of the reaction solution was added dropwise to P30 filter paper, washed 4 times with a 0.425% phosphoric acid solution and once with methanol, and then placed in a scintillation counter for detection. Gray analysis was performed on the results with Image J software, and IC50 values were calculated with GraphPad 5.0 software.

CSF1R (h) = CSF1R (h) (Homo sapiens, UniProt P07333); experiment: Enzymatic activity assay, CSF1R (h), [γ-33P]-ATP filter assay; assay type: biochemical; conditions: 10 μM ATP, 40 min room temperature; read-out: Inhibitory activity IC50 CSF1R(h)
Chain of CSF1R (h) (P07333 20-972): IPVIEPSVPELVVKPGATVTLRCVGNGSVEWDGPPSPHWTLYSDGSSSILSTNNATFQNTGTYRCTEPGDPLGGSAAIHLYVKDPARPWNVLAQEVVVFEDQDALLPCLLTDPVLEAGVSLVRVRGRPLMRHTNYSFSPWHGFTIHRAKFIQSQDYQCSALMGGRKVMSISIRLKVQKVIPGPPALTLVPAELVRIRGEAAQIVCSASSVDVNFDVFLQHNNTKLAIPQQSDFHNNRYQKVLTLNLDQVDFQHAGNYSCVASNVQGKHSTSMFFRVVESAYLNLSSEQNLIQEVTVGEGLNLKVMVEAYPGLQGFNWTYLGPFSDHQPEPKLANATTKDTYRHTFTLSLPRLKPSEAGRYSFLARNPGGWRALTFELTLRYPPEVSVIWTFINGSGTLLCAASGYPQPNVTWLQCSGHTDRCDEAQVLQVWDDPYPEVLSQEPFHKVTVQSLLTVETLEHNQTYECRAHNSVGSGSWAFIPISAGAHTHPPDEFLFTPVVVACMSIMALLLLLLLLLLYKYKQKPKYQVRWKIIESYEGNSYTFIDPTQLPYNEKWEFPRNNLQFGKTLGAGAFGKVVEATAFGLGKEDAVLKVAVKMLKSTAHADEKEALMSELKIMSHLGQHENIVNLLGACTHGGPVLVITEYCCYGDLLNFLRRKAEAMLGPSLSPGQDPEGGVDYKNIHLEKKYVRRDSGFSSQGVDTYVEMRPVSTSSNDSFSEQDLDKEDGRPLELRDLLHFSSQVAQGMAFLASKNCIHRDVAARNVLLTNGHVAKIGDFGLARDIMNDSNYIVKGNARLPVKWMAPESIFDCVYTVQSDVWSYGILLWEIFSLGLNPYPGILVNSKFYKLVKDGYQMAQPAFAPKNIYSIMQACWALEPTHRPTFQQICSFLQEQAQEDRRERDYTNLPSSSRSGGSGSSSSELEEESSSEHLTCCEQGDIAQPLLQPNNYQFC
Experimental: as §1, §2
An enzyme solution with a final concentration of 64 nM was prepared by dissolving CSF1R enzyme in a mixture of 8 mM MOPS (pH 7.0), 0.2 mM EDTA and 250 μM KKSRGDYMTMQIG. A Mg/ATP mixture of 10 mM magnesium acetate and 10 μM [γ-^33P]-ATP was used to activate the enzymatic reaction.
as §3

Compound	IC50 (H1299 cell pMer)	IC50 (Tyro-3 (h))	IC50 (CSF1R (h))
COc1cc2nccc(Oc3ccc(NC(=O)c4cn(CC5CCOCC5)cc(-c5ccc(C)cc5)c4=O)nc3)c2cc1OC [Compound 1, N-(5-((6,7-dimethoxyquinolin-4-yl)oxy)pyridin-2-yl)-4-oxo-1-((tetrahydro-2H-pyran-4-yl)methyl)-5-(p-tolyl)-1,4-dihydropyridin-3-carboxamide]	1.1 to 3.3 nM	37 nM	–
COc1cc2nccc(Oc3ccc(NC(=O)c4cn(CC5CCS(=O)(=O)CC5)cc(-c5ccc(C)cc5)c4=O)nc3)c2cc1OC [Compound 7, N-(5-((6,7-dimethoxyquinolin-4-yl)oxy)pyridin-2-yl)-1-((1,1-dioxotetrahydro-2H-thiopyran-4-yl)methyl)-4-oxo-5-(p-tolyl)-1,4-dihydropyridin-3-carboxamide]	–	192 nM	–
COc1cc2nccc(Oc3ccc(NC(=O)c4cn(CC5CC[S+]([O-])CC5)cc(-c5ccc(C)cc5)c4=O)nc3)c2cc1OC (stereo not drawn) [Compound 8, N-(5-((6,7-dimethoxyquinolin-4-yl)oxy)pyridin-2-yl)-1-((1-oxotetrahydro-2H-thiopyran-4-yl)methyl)-4-oxo-5-(p-tolyl)-1,4-dihydropyridin-3-carboxamide]	–	117 nM	–
COc1cc2nccc(Oc3ccc(NC(=O)c4cn(CC5CCSCC5)cc(-c5ccc(C)cc5)c4=O)nc3)c2cc1OC [Compound 9, N-(5-((6,7-dimethoxyquinolin-4-yl)oxy)pyridin-2-yl)-4-oxo-1-((tetrahydro-2H-thiopyran-4-yl)methyl)-5-(p-tolyl)-1,4-dihydropyridin-3-carboxamide]	1.1 to 3.3 nM	28 nM	–
COc1cc2nccc(Oc3ccc(NC(=O)c4cc(-c5ccc(C)cc5)cn(CC5CCOCC5)c4=O)nc3)c2cc1OC [Compound 13, N-(5-((6,7-dimethoxyquinolin-4-yl)oxy)pyridin 2yl)-2-oxo-1-((tetrahydro-2H-pyran-4-yl)methyl)-5-(p-tolyl)-1,2-dihydropyridin-3-carboxamide]	–	94 nM	–
COc1cc2nccc(Oc3ccc(NC(=O)c4cn(C5CCOCC5)cc(-c5ccc(C)cc5)c4=O)nc3)c2cc1OC [Compound 19, N-(5-((6,7-dimethoxyquinolin-4-yl)oxy)pyridin-2-yl)-4-oxo-1-(tetrahydro-2H-pyran-4-yl)-5-(p-tolyl)-1,4-dihydropyridin-3-carboxamide]	< 0.35 nM	34 nM	–
COc1cc2nccc(Oc3ccc(NC(=O)c4cn(CC5CCOCC5)cc(-c5ccc(C)cc5)c4=O)nn3)c2cc1OC [Compound 24, N-(6-((6,7-dimethoxyquinolin-4-yl)oxy)pyridazin-3-yl)-4-oxo-1-((tetrahydro-2H-pyran-4-yl)methyl)-5-(p-tolyl)-1,4-dihydropyridin-3-carboxamide]	–	212 nM	–
COc1cc2nccc(Oc3ccc(NC(=O)c4cn(CC5CCOCC5)c5ccccc5c4=O)nc3)c2cc1OC [Compound 25, N-(5-((6,7-dimethoxyquinolin-4-yl)oxy)pyridin-2-yl)-4-oxo-1-((tetrahydro-2H-pyran-4-yl)methyl)-1,4-dihydroquinolin-3-carboxamide]	–	205 nM	–
COc1cc2nccc(Oc3ccc(NC(=O)c4cc(CC5CCOCC5)cn(-c5ccc(C)cc5)c4=O)nc3)c2cc1OC [Compound 26, N-(5-((6,7-dimethoxyquinolin-4-yl)oxy)pyridin-2-yl)-oxo-5-((tetrahydro-2H-pyran-4-yl)methyl)-1-(p-tolyl)-1,2-dihydropyridin-3-carboxamide]	–	48 nM	< 200 nM
COc1cc2nccc(Oc3ccc(NC(=O)c4cn(C5CCOCC5)cc(-c5ccc(F)cc5)c4=O)nc3)c2cc1OC [Compound 27, N-(5-((6,7-dimethoxyquinolin-4-yl)oxy)pyridin-2-yl)-5-(4-fluorophenyl)-4-oxo-1-(tetrahydro-2H-pyran-4-yl)-1,4-dihydropyridin-3-carboxamide]	< 1.1 nM	–	< 200 nM
Cc1ccc(-c2cn(C3CCOCC3)nc(C(=O)Nc3ccc(Oc4ccnc5cc6c(cc45)OCO6)cn3)c2=O)cc1 [Compound 29, N-(5-([1,3]dioxolo[4,5-g]quinolin-8-yloxy)pyridin-2-yl)-4-oxo-1-(tetrahydro-2H-pyran-4-yl)-5-(p-tolyl)-1,4-dihydropyridazin-3-carboxamide]	–	321 nM	–
Cc1ccc(-c2cn(C3CCOCC3)nc(C(=O)Nc3ccc(Oc4ccnc5cc6c(cc45)OCCO6)cn3)c2=O)cc1 [Compound 30, N-(5-((2,3-dihydro-[1,4]dioxino[2,3-g]quinolin-9-yl)oxy)pyridin-2-yl)-4-oxo-1-(tetrahydro-2H-pyran-4-yl)-5-(p-tolyl)-1,4-dihydropyridazin-3-carboxamide]	–	318 nM	–
COc1cc2nccc(Oc3cnc(NC(=O)c4nn(C5CCOCC5)cc(-c5ccc(F)cc5)c4=O)nc3)c2cc1OC [Compound 33, N-(5-((6,7-dimethoxyquinolin-4-yl)oxy)pyrimidin-2-yl)-5-(4-fluorophenyl)-4-oxo-1-(tetrahydro-2H-pyran-4-yl)-1,4-dihydropyridazin-3-carboxamide]	–	23 nM	< 200 nM
COc1cc2nccc(Oc3ccc(NC(=O)c4nn(C5CCOCC5)cc(-c5ccc(F)cc5)c4=O)nc3)c2cc1OC [Compound 34, N-(5-((6,7-dimethoxyquinolin-4-yl)oxy)pyridin-2-yl)-5-(4-fluorophenyl)-4-oxo-1-(tetrahydro-2H-pyran-4-yl)-1,4-dihydropyridazin-3-carboxamide]	–	19 nM	< 200 nM
